Data taken from patent publication US4031093A, “1,6-Dihydro-6-oxo-2-(ortho-substituted phenyl)pyrimidine-5-carboxylic acid derivatives” (priority 1976, dated 1977).
Read-outs that look alike come from different tables or passages of the source.

Experiments:
[1] = test system: reagin-mediated rat Passive Cutaneous Anaphylaxis (PCA); assay: reagin-mediated rat Passive Cutaneous Anaphylaxis (PCA) screening test; type: in vivo, rat (Sprague-Dawley)
Procedure: The reagin-mediated rat Passive Cutaneous Anaphylaxis (PCA) screening test used to evaluate the present compounds is generally regarded as one of the best animal models for use in predicting the antiallergy activity of test compounds in man. Briefly, the method consists of passive sensitization of skin sites on the test animals with reaginic antibodies followed after 24 hours by administration of the test drug and antigen challenge. The allergic response is measured by use of Evans' blue dye and is evaluated by the spot diameter at the injection site. Details of the test are provided below.
A substituted ovalbumin antigen is used both as immunogen and challenging antigen. The antigen is prepared as follows: 500 mg. ovalbumin (EA) and 500 mg. K2 CO3 are dissolved in 25 ml. distilled H2 O and stirred at room temperature for 5 minutes. Five hundred (500) mg. dinitrobenzene sulfonic acid, Na^+ salt, (previously recrystallized from hot absolute ethanol) is then added slowly with continued stirring. The reaction mixture is then immediately placed in the dark and allowed to proceed for 2 hours with constant stirring. After 2 hours the mixture is placed in suitable dialysis tubing and dialyzed against 5 changes (4 liters each) of distilled H2 O at 5° C. After dialysis the product is lyophilized and stored at room temperature in a brown or amber container. The antigen obtained will appear as a light yellow, amorphous solid which is very soluble in water or saline. It is designated as DNP denatured ovalbumin (DNP-d EA).
Adult, male Sprague-Dawley rats are used as a source of reagin-rich antisera for the PCA model. Immunization is by a combination of DNP-d EA on Al (OH)3 gel and B. pertussis vaccine. Preparation of the DNP-d EA - gel immunogen is as follows: Dissolve the DNP-d EA in TBS so as to give a concentration of 10 mg./ml. Slowly add 1 ml. of this solution to 10 ml. Al(OH)3 gel (10 mg. solids/ml.) with constant stirring at room temperature. Stir the mixture an additional 30 minutes to insure a uniform adsorption of antigen on gel.
The resulting preparation is then used in combination with phase I B. pertussis vaccine to immunize male S/D rats as follows: For each rat administer 0.1 ml. DNP-d EA - gel suspension intramuscularly in each hind leg (200 μg DNP-d EA and 2 mg. gel total dose). Follow these injections by the intraperitoneal administration of 1.0 ml. B. pertussis vaccine (10-20 × 10^9 organisms). The use of light ether anesthesia during this procedure is recommended to insure proper intramuscular and intraperitoneal injections. Nine days following immunization (but no longer than 10) the animals are exsanguinated by cardiac puncture or abdominal aorta cannulation under ether or pentobarbital anesthesia. The collected whole blood is allowed to clot, the serum separated by centrifugation and the individual serum samples stored frozen until assayed for IgE content.
Individual serum samples should be screened for reaginic antibody concentration before being pooled with other sera, as not all rats respond to immunization procedures with reagin production. A 1:50 saline dilution of serum from each immunized rat is used for this purpose. Intradermal injections of 0.05 ml. of the diluted sera are made in the shaven backs of two small female recipient rats, 100-120 gms. Several serum samples can be tested simultaneously in recipient animals. After a 24 to 48 hour latent period antigen challenge is accomplished by […] administration to each rat of 1 mg. DNP-d EA in 0.5 ml. 0.5% Evans' blue dye in saline. Sera which show positive PCA reactions at the 1:50 dilution, as measured 20 to 30 minutes post-challenge are pooled, dispensed in small aliquots and stored at -70° C. or lower until used. Negative sera may be discarded.
The IgE titer of the antisera pool should then be determined. […]

[2] = cited from earlier work
[3] = test system: release of mediators, e.g. histamine and SRS-A; conditions: administered to asthmatic patients prior to inhalation of specific antigens; cited from earlier work
[4] = bronchial asthma treatment; cited from earlier work
[5] = po, Table I, p.o., 10 minutes prior to antigen challenge, esters suspended in Tween/CMC, read-out: ID50 (dose of compound that inhibits 50% of the response), ethyl esters, p.o.
[6] = po, Table II, p.o., 10 minutes prior to antigen challenge, acids solubilized in aqueous sodium bicarbonate, read-out: ID50 (dose of compound that inhibits 50% of the response), 5-carboxylic acids, p.o.
[7] = iv, Table II, i.v., 1-5 minutes prior to antigen challenge, acids solubilized in aqueous sodium bicarbonate, read-out: ID50 (dose of compound that inhibits 50% of the response), 5-carboxylic acids, i.v.

SMILES | ED50 [1, 5] [mg/kg] | ED50 [1, 6] [mg/kg] | further results
CCOC(=O)c1cnc(-c2ccccc2OC(C)CC)[nH]c1=O (racemic) [Example 10, Ethyl (±)-1,6-dihydro-6-oxo-2-(2-sec-butoxyphenyl)pyrimidine-5-carboxylate] | 0.5 |  | 
CCC(C)Oc1ccccc1-c1ncc(C(=O)O)c(=O)[nH]1 (racemic) [Example 24B, (±)-1,6-Dihydro-6-oxo-2-(2-sec-butoxyphenyl)pyrimidine-5-carboxylic acid] |  | 0.5 | 
O=C(O)c1cc(=O)c2c(OCC(O)COc3cccc4oc(C(=O)O)cc(=O)c34)cccc2o1 [DSCG, Disodium cromoglycate, reference compound] | > 30 | > 30 | ED50 ([1]; iv, Table I, i.v., compound dosed at time of challenge, solubilized in saline, read-out: ID50, DSCG, i.v. (Table I)): 0.3 mg/kg; oral absorption [2]: not orally absorbed; inhibition of release of mediators [3]: inhibits the release of mediators, e.g. histamine and SRS-A
CCOC(=O)c1cnc(-c2ccccc2OCC)[nH]c1=O [Example 1, Ethyl 1,6-dihydro-6-oxo-2-(2-ethoxyphenyl)pyrimidine-5-carboxylate] | ~2 |  | ED50 ([1]; iv, Table I, i.v., 1-5 minutes prior to antigen challenge, esters suspended in Tween/CMC, read-out: ID50 (dose of compound that inhibits 50% of the response), ethyl esters, i.v.): 0.4 mg/kg
CCCOc1ccccc1-c1ncc(C(=O)OCC)c(=O)[nH]1 [Example 5, Ethyl 1,6-dihydro-6-oxo-2-(2-n-propoxyphenyl)pyrimidine-5-carboxylate] | ~5 |  | 
CCOC(=O)c1cnc(-c2ccccc2OC(C)C)[nH]c1=O [Example 7, Ethyl 1,6-dihydro-6-oxo-2-(2-isopropoxyphenyl)pyrimidine-5-carboxylate] | ~2 |  | 
C=CCOc1ccccc1-c1ncc(C(=O)OCC)c(=O)[nH]1 [Example 8, Ethyl 1,6-dihydro-6-oxo-2-(2-allyloxyphenyl)pyrimidine-5-carboxylate] | 0.5 |  | 
CCCCOc1ccccc1-c1ncc(C(=O)OCC)c(=O)[nH]1 [Example 9, Ethyl 1,6-dihydro-6-oxo-2-(2-n-butoxyphenyl)pyrimidine-5-carboxylate] | 0.5 |  | 
CCOC(=O)c1cnc(-c2ccccc2OCC(C)C)[nH]c1=O [Example 12, Ethyl 1,6-dihydro-6-oxo-2-(2-isobutoxyphenyl)pyrimidine-5-carboxylate] | ~3 |  | 
CCOC(=O)c1cnc(-c2cc(OC)ccc2OC)[nH]c1=O [Example 15A, Ethyl 1,6-dihydro-6-oxo-2-(2,5-dimethoxyphenyl)pyrimidine-5-carboxylate] | 5 |  | 
CCOC(=O)c1cnc(-c2cc(Cl)ccc2OCC)[nH]c1=O [Example 15B, Ethyl 1,6-dihydro-6-oxo-2-(5-chloro-2-ethoxyphenyl)pyrimidine-5-carboxylate] | ~0.5 |  | 
CCOC(=O)c1cnc(-c2cc(OC)ccc2OCC)[nH]c1=O [Example 15C, Ethyl 1,6-dihydro-6-oxo-2-(2-ethoxy-5-methoxyphenyl)pyrimidine-5-carboxylate] | 0.3 |  | 
CCOC(=O)c1ccc(OCC)c(-c2ncc(C(=O)OCC)c(=O)[nH]2)c1 [Example 16, Ethyl 1,6-dihydro-6-oxo-2-(5-carbethoxy-2-ethoxyphenyl)pyrimidine-5-carboxylate] | 1 |  | 
CCOC(=O)c1cnc(-c2cc(N)ccc2OCC)[nH]c1=O [Example 17, Ethyl 1,6-dihydro-6-oxo-2-(5-amino-2-ethoxyphenyl)pyrimidine-5-carboxylate] | 0.5 |  | 
CCOC(=O)c1cnc(-c2ccccc2OCC2CC2)[nH]c1=O [Example 18, Ethyl 1,6-dihydro-6-oxo-2-(2-cyclopropylmethoxyphenyl)pyrimidine-5-carboxylate] | ~0.3 |  | 
CCCOc1ccc(OC)cc1-c1ncc(C(=O)OCC)c(=O)[nH]1 [Example 19, Ethyl 1,6-dihydro-6-oxo-2-(5-methoxy-2-n-propoxyphenyl)-pyrimidine-5-carboxylate] | 0.7 |  | 

SMILES | ED50 [1, 5] [mg/kg] | ED50 [1, 6] [mg/kg] | further results
CCOc1ccccc1-c1ncc(C(=O)O)c(=O)[nH]1 [Example 20, 1,6-Dihydro-6-oxo-2-(2-ethoxyphenyl)pyrimidine-5-carboxylic acid] |  | 0.5 | ED50 [1, 7]: 0.07 mg/kg
CCCOc1ccccc1-c1ncc(C(=O)O)c(=O)[nH]1 [Example 21, 1,6-Dihydro-6-oxo-2-(2-n-propoxyphenyl)pyrimidine-5-carboxylic acid] |  | 0.9 | ED50 [1, 7]: ~0.1 mg/kg
CC(C)Oc1ccccc1-c1ncc(C(=O)O)c(=O)[nH]1 [Example 22, 1,6-Dihydro-6-oxo-2-(2-isopropoxyphenyl)pyrimidine-5-carboxylic acid] |  | 0.8 | 
CCCCOc1ccccc1-c1ncc(C(=O)O)c(=O)[nH]1 [Example 23, 1,6-Dihydro-6-oxo-2-(2-n-butoxyphenyl)pyrimidine-5-carboxylic acid] |  | 0.5 | 
C=CCOc1ccccc1-c1ncc(C(=O)O)c(=O)[nH]1 [Example 24A, 1,6-Dihydro-6-oxo-2-(2-allyloxyphenyl)pyrimidine-5-carboxylic acid] |  | 0.5 | 
CC(C)COc1ccccc1-c1ncc(C(=O)O)c(=O)[nH]1 [Example 24C, 1,6-Dihydro-6-oxo-2-(2-isobutoxyphenyl)pyrimidine-5-carboxylic acid] |  | 0.5 | 
COc1ccc(OC)c(-c2ncc(C(=O)O)c(=O)[nH]2)c1 [Example 24D, 1,6-Dihydro-6-oxo-2-(2,5-dimethoxyphenyl)pyrimidine-5-carboxylic acid] |  | 1 | 
CCOc1ccc(Cl)cc1-c1ncc(C(=O)O)c(=O)[nH]1 [Example 24E, 1,6-Dihydro-6-oxo-2-(5-chloro-2-ethoxyphenyl)pyrimidine-5-carboxylic acid] |  | 0.5 | 
CCOc1ccc(N)cc1-c1ncc(C(=O)O)c(=O)[nH]1 [Example 24F, 1,6-Dihydro-6-oxo-2-(5-amino-2-ethoxyphenyl)pyrimidine-5-carboxylic acid] |  | 0.9 | 
CCOc1ccc(OC)cc1-c1ncc(C(=O)O)c(=O)[nH]1 [Example 24G, 1,6-Dihydro-6-oxo-2-(2-ethoxy-5-methoxyphenyl)pyrimidine-5-carboxylic acid] |  | 0.2 | 
O=C(O)c1cnc(-c2ccccc2OCC2CC2)[nH]c1=O [Example 25, 1,6-Dihydro-6-oxo-2-(2-cyclopropylmethoxyphenyl)pyrimidine-5-carboxylic acid] |  | ~0.1 | 
CCOc1ccc(N(C)C)cc1-c1ncc(C(=O)O)c(=O)[nH]1 [Example 26, 1,6-Dihydro-6-oxo-2-(5-dimethylamino-2-ethoxyphenyl)pyrimidine-5-carboxylicacid] |  | 0.3 | 
CCCOc1ccc(OC)cc1-c1ncc(C(=O)O)c(=O)[nH]1 [Example 27, 1,6-Dihydro-6-oxo-2-(5-methoxy-2-n-propoxyphenyl)pyrimidine-5-carboxylic acid] |  | 0.3 | 
CN1[C@@H]2CC[C@H]1C[C@@H](OC(=O)C(CO)c1ccccc1)C2 (stereo partly drawn) [atropine] |  |  | side effects [4]: undesirable side effects, e.g. cardiac stimulation and gastrointestinal distress
CNC[C@H](O)c1ccc(O)c(O)c1 [epinephrine] |  |  | side effects [4]: undesirable side effects, e.g. cardiac stimulation and gastrointestinal distress
CC(C)NCC(O)c1ccc(O)c(O)c1 (stereo not drawn) [isoproterenol] |  |  | side effects [4]: undesirable side effects, e.g. cardiac stimulation and gastrointestinal distress
